Measurements reported in ChEMBL document CHEMBL1250531, “Comparative nuclease and anti-cancer properties of the naturally occurring malabaricones” (Bioorg Med Chem, 2010).
The source made the active and inactive calls. The rule behind the calls is not given here.

What was measured:
[1] = tested on: MCF7; experiment: Ratio of compound IC50 to curcumin IC50 for human MCF7 cells; type: functional
[2] = tested on: MCF7; experiment: Cytotoxicity against human MCF7 cells after 72 hrs by MTT assay; type: functional, cell-based; details: for IC50: MCF7, 72 h
[3] = tested on: Nucleic Acid; experiment: Induction of Escherichia coli pBR322 DNA cleavage at 25 uM after 45 mins under anoxic condition by agarose gel electrophoresis in presence of copper; type: nucleic-acid assay
[4] = tested on: Nucleic Acid; experiment: Induction of Escherichia coli pBR322 DNA cleavage assessed as linear form of DNA at 25 uM after 45 mins by agarose gel electrophoresis in presence of copper; type: nucleic-acid assay
[5] = tested on: MCF7; experiment: Cytotoxicity against human MCF7 cells at 50 uM after 72 hrs by MTT assay relative to control; type: functional
[6] = tested on: Nucleic Acid; experiment: Induction of Escherichia coli pBR322 DNA cleavage assessed as open circular form of DNA at 25 uM after 45 mins by agarose gel electrophoresis in presence of copper; type: nucleic-acid assay
[7] = tested on: MCF7; experiment: Cytotoxicity against human MCF7 cells at 100 uM after 72 hrs by MTT assay; type: functional, cell-based
[8] = tested on: Nucleic Acid; experiment: Induction of Escherichia coli pBR322 DNA cleavage at 5 to 10 uM uM after 45 mins by agarose gel electrophoresis in presence of 100 uM of copper; type: nucleic-acid assay
[9] = tested on: Calf thymus DNA; experiment: Binding affinity to calf thymus DNA at 50 uM after 5 mins by absorption spectroscopic analysis; type: nucleic-acid assay; details: Bos taurus
[10] = tested on: Nucleic Acid; experiment: Induction of Escherichia coli pBR322 DNA cleavage at 25 uM after 45 mins by agarose gel electrophoresis in presence of <100 uM of copper; type: nucleic-acid assay
[11] = Induction of copper chelation assessed as compound copper complex formation at 25 uM by absorption spectroscopic analysis; type: physicochemical
[12] = tested on: Nucleic Acid; experiment: Induction of Escherichia coli pBR322 DNA cleavage at 25 uM after 45 mins by agarose gel electrophoresis in presence of 100 uM of copper and 500 U/ml of superoxide dismutase; type: nucleic-acid assay
[13] = tested on: MCF7; experiment: Cytotoxicity against human MCF7 cells assessed as cell viability at 5 uM after 72 hrs by MTT assay pretreated with 1 mM of NAC relative to control; type: functional
[14] = tested on: MCF7; experiment: Induction of ROS production in human MCF7 cells at 1 mM after 3 hrs by DCFDA assay relative to control; type: functional
[15] = tested on: Nucleic Acid; experiment: Induction of Escherichia coli pBR322 DNA cleavage assessed as supercoiled form of DNA at 25 uM after 45 mins by agarose gel electrophoresis in presence of 100 uM of copper and EDTA; type: nucleic-acid assay
[16] = tested on: MCF7; experiment: Induction of ROS production in human MCF7 cells after 3 hrs by DCFDA assay; type: functional, cell-based
[17] = tested on: Nucleic Acid; experiment: Induction of Escherichia coli pBR322 DNA cleavage at 25 uM after 45 mins by agarose gel electrophoresis in presence of 100 uM of copper and 100 mM of mannitol; type: nucleic-acid assay
[18] = tested on: Nucleic Acid; experiment: Induction of Escherichia coli pBR322 DNA cleavage assessed as supercoiled form of DNA at 25 uM after 45 mins by agarose gel electrophoresis in presence of 100 uM of copper and neocuproine; type: nucleic-acid assay
[19] = tested on: Nucleic Acid; experiment: Induction of Escherichia coli pBR322 DNA cleavage at 25 uM after 45 mins by agarose gel electrophoresis; type: nucleic-acid assay
[20] = tested on: MCF7; experiment: Induction of apoptosis in human MCF7 cells assessed as DNA ladder formation after 24 hrs using ethidium bromide staining by agarose gel electrophoresis; type: functional, cell-based
[21] = tested on: MCF7; experiment: Induction of ROS production in human MCF7 cells at 15 uM after 3 hrs by DCFDA assay relative to control; type: functional
[22] = tested on: Nucleic Acid; experiment: Induction of Escherichia coli pBR322 DNA cleavage assessed as supercoiled form of DNA at 25 uM after 45 mins by agarose gel electrophoresis in presence of 100 uM of copper; type: nucleic-acid assay
[23] = Induction of hydrogen peroxide production at 100 uM after 20 mins by horse radish peroxidase assay relative to control in presence of 100 uM of copper; type: physicochemical
[24] = tested on: Nucleic Acid; experiment: Induction of Escherichia coli pBR322 DNA cleavage at 25 uM after 45 mins by agarose gel electrophoresis in presence of 100 uM of copper and 250 uM of neocuproine; type: nucleic-acid assay
[25] = tested on: Nucleic Acid; experiment: Induction of Escherichia coli pBR322 DNA cleavage assessed as supercoiled form of DNA at 25 uM after 45 mins by agarose gel electrophoresis in presence of 100 uM of copper and sodium azide; type: nucleic-acid assay
[26] = tested on: Nucleic Acid; experiment: Induction of Escherichia coli pBR322 DNA cleavage assessed as supercoiled form of DNA at 25 uM after 45 mins by agarose gel electrophoresis in presence of 100 uM of copper and catalase; type: nucleic-acid assay
[27] = tested on: MCF7; experiment: Induction of morphological changes in human MCF7 cells at 2.5 to 40 uM after 24 hrs by phase contrast microscopic analysis; type: functional, cell-based
[28] = Induction of superoxide radical production at 100 uM after 20 mins by NBT reduction assay relative to control in presence of 100 uM of copper; type: physicochemical
[29] = tested on: Nucleic Acid; experiment: Induction of Escherichia coli pBR322 DNA cleavage at 25 uM after 45 mins by agarose gel electrophoresis in presence of 100 uM of copper and 250 uM of EDTA; type: nucleic-acid assay
[30] = tested on: Calf thymus DNA; experiment: Binding affinity to calf thymus DNA assessed as increase of viscosity of DNA solution at 0.2 mM after 30 mins; type: nucleic-acid assay; details: Bos taurus
[31] = tested on: Nucleic Acid; experiment: Induction of Escherichia coli pBR322 DNA cleavage assessed as open circular form of DNA at 25 uM after 30 mins by agarose gel electrophoresis in presence of 100 uM of copper; type: nucleic-acid assay
[32] = tested on: Nucleic Acid; experiment: Induction of Escherichia coli pBR322 DNA cleavage at 25 uM after 45 mins by agarose gel electrophoresis in presence of 100 uM of copper and 500 U/ml of catalase; type: nucleic-acid assay
[33] = tested on: Nucleic Acid; experiment: Induction of Escherichia coli pBR322 DNA cleavage at 25 uM after 45 mins by agarose gel electrophoresis in presence of 100 uM of copper and 250 U/ml of superoxide dismutase; type: nucleic-acid assay
[34] = tested on: MCF7; experiment: Cytotoxicity against human MCF7 cells assessed as cell viability at 5 uM after 72 hrs by MTT assay; type: functional; details: MCF7, 72 h, read-out: Activity
[35] = tested on: MCF7; experiment: Induction of ROS production in human MCF7 cells at 10 uM after 3 hrs by DCFDA assay relative to control; type: functional
[36] = tested on: Nucleic Acid; experiment: Induction of Escherichia coli pBR322 DNA cleavage at 25 uM after 45 mins by agarose gel electrophoresis in presence of 100 uM of copper and 100 mM of sodium azide; type: nucleic-acid assay
[37] = tested on: Calf thymus DNA; experiment: Binding affinity to calf thymus DNA assessed as increase of ethidium bromide fluorescence quenching at 0.2 mM after 30 mins; type: nucleic-acid assay; details: Bos taurus
[38] = tested on: Nucleic Acid; experiment: Induction of Escherichia coli pBR322 DNA cleavage at 25 uM after 45 mins by agarose gel electrophoresis in presence of 100 uM of copper and 100 mM of DMSO; type: nucleic-acid assay
[39] = tested on: Nucleic Acid; experiment: Induction of Escherichia coli pBR322 DNA cleavage at 25 uM after 45 mins by agarose gel electrophoresis in presence of 100 uM of copper and 500 mM of mannitol; type: nucleic-acid assay

COc1cc(/C=C/C(=O)CC(=O)/C=C/c2ccc(O)c(OC)c2)ccc1O [CURCUMIN]
fold change (FC) [1]: 4 | IC50 [2]: 24.5 µM

O=C(CCCCCCCCc1ccccc1)c1c(O)cccc1O [MALABARICONE A]
Activity [3]: inactive | Activity [4]: Active | Activity [5]: 12% | Activity [2]: Dose-dependent effect | Activity [6]: inactive

C=CCc1ccc(O)c(O)c1
Activity [7]: inactive

O=C(CCCCCCCCc1ccc(O)cc1)c1c(O)cccc1O
Activity [6]: Active

O=C(CCCCCCCCc1ccc2c(c1)OCO2)c1c(O)cccc1O
Activity [3]: inactive | Activity [4]: inactive | IC50 [2]: 15.7 µM | Activity [6]: Active

O=C(CCCCCCCCc1ccc(O)c(O)c1)c1c(O)cccc1O [MALABARICONE C]
Activity [8]: Active | Activity [9]: Active | Activity [10]: inactive | Activity [11]: Active | Activity [12]: Active | Activity [13]: 75.32% | Activity [14]: 71% | Activity [15]: 76.2% | Activity [16]: Dose-dependent effect | Activity [17]: Active | Activity [18]: 98.5% | Activity [4]: Active | Activity [19]: inactive | Activity [20]: Dose-dependent effect | Activity [21]: 50% | Activity [22]: inactive | Activity [23]: 85% | Activity [24]: inactive | Activity [25]: 93.1% | Activity [26]: 82% | Activity [27]: Active | Activity [28]: 42% | Activity [29]: inactive | Activity [30]: Active | IC50 [2]: 5.26 µM | Activity [31]: Active | Activity [32]: inactive | Activity [33]: Active | viability at 5 µM [34]: 45.3% | Activity [35]: 26% | Activity [36]: inactive | Activity [37]: 24.4% | Activity [6]: Active | Activity [38]: Active | Activity [39]: Active
